Measurements published in patent US11092608B2, “Methods of identifying modulators of CASTOR1-GATOR2 interaction and use of same to modulate mTORC1” (Whitehead Institute for Biomedical Research, priority 2015, dated 2021).
Where “and” joins values, the source holds several entries; their conditions need not be identical. Equal entries are not always repeated.

Assays:
[1] = molecular target: T1, CASTOR1 homodimer (Homo sapiens, UniProt Q8WTX7); test: Arginine binding assay (equilibrium / competition binding with [3H]-labeled amino acids); conditions: for binding of radiolabeled amino acid to CASTOR1 homodimer: immunopurified from HEK-293T cells, competed by excess nonradiolabelled arginine
T1 construct: made in house; host or cells: HEK-293T (transfected, pRK5-based cDNA plasmids; anti-FLAG immunoprecipitates)
T1 sequence (Q8WTX7 1-329) 1: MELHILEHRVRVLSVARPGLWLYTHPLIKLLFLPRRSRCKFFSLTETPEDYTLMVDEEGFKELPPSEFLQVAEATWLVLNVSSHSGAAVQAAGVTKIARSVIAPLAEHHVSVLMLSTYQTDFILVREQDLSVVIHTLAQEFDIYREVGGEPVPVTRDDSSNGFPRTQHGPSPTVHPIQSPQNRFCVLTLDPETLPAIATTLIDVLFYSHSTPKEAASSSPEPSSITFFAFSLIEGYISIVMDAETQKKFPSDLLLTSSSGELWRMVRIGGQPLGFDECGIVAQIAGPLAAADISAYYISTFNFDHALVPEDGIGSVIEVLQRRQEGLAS
T1 sequence (Q8WTX7 1-329) 2: T1 sequence (Q8WTX7 1-329) 1
Procedure: (§1) Four million HEK-293T cells were plated in a 15 cm plate four days prior to the experiment. Forty-eight hours after plating, the cells were transfected via the polyethylenimine method (Boussif et al., 1995) with the pRK5-based cDNA expression plasmids indicated in the figures in the following amounts: 15 μg FLAG-Rap2A, 400 ng CASTOR1-FLAG or CASTOR2-FLAG with 1200 ng CASTOR1-HA or 1200 ng CASTOR2-HA, 400 ng CASTOR1 1280A-FLAG with 1200 ng CASTOR1 1280A-HA. The total amount of plasmid DNA in each transfection was normalized to 15 μg with empty pRK5. Forty-eight hours after transfection cells were lysed as previously described (Wolfson et al., 2015). If multiple samples of the same type were represented in the experiment, the cell lysates were combined, mixed, and evenly distributed amongst the relevant tubes.
(§2) Anti-FLAG immunoprecipitates were prepared as previously described, with the exception that prior to incubation with lysates, the beads were blocked by rotating in 1 μg/μl bovine serum albumin (BSA) for 20 minutes at 4° C. and subsequently washed twice in lysis buffer. Thirty μl of the 50% slurry of beads in lysis buffer was added to each of the clarified cell lysates and incubated for 90 minutes.
(§3) For the binding assays, all immunoprecipitates were washed in pairs once with Triton wash buffer, three times with Triton lysis buffer supplemented with 500 mM NaCl, and three times with cytosolic buffer (0.1% Triton, 40 mM HEPES pH 7.4, 10 mM NaCl, 150 mM KCl, 2.5 mM MgCl2). All the liquid was subsequently aspirated and a 15 μl aliquot of proteins bound to the beads was incubated for one hour on ice in cytosolic buffer with the appropriate amount of [^3H]-labeled amino acids and cold amino acids. At the end of one hour, the beads were spun at 2,500 rpm for 25 seconds, aspirated, and rapidly washed three times with binding wash buffer (0.1% Triton, 40 mM HEPES pH 7.4, 150 mM NaCl). The beads were aspirated dry and resuspended in 85 μl of binding wash buffer. Three 10 μl aliquots of this mix were separately quantified using a TriCarb scintillation counter (PerkinElmer).
(§4) For each sample, an immunoprecipitation was performed in parallel. After washing four times as previously described, the beads were aspirated dry and resuspended in 50 μl FLAG elution buffer (Triton wash buffer supplemented with 300 mM NaCl and 1 mg/ml FLAG peptide), and incubated with rotation for 1 hour at 4° C. The eluent was subsequently resuspended in sample buffer. Equal volumes of the eluent were resolved by 10% SDS-PAGE and analyzed with Coomassie Blue stain. Kd values were calculated as previously described (Wolfson et al., 2015).

[2] = molecular target: T2, CASTOR1-CASTOR2 heterodimer (Homo sapiens, UniProt Q8WTX7); test: as above
T2 construct: made in house; host or cells: HEK-293T (transfected, pRK5-based cDNA plasmids; anti-FLAG immunoprecipitates)
T2 sequence (Q8WTX7 1-329): T1 sequence (Q8WTX7 1-329) 1
T2 sequence (A6NHX0 1-329 partner): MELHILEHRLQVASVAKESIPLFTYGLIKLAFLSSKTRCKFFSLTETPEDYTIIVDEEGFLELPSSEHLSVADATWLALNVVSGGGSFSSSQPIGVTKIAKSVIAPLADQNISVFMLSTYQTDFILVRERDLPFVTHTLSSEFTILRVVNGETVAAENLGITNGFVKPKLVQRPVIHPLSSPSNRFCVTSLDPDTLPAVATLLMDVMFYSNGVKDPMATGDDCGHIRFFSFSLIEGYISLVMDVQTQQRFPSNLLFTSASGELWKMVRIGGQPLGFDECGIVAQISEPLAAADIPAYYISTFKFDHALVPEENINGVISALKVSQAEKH
Procedure: as §1, §2, §3, §4

[3] = molecular target: T3, CASTOR2 homodimer (Homo sapiens, UniProt A6NHX0); test: Arginine binding assay (equilibrium binding with [3H]-labeled arginine); conditions: immunopurified from HEK-293T cells
T3 construct: made in house; host or cells: HEK-293T (transfected, pRK5-based cDNA plasmids; anti-FLAG immunoprecipitates)
T3 sequence (A6NHX0 1-329) 1: T2 sequence (A6NHX0 1-329 partner)
T3 sequence (A6NHX0 1-329) 2: T2 sequence (A6NHX0 1-329 partner)
Procedure: as §1, with “If multiple samples of the same type were represented in the experiment, the cell lysates were combined, mixed, and evenly distributed amongst the relevant tubes.” left out
For the binding assays, all immunoprecipitates were washed in pairs once with Triton wash buffer, three times with Triton lysis buffer supplemented with 500 mM NaCl, and three times with cytosolic buffer (0.1% Triton, 40 mM HEPES pH 7.4, 10 mM NaCl, 150 mM KCl, 2.5 mM MgCl2). […] Three 10 μl aliquots of this mix were separately quantified using a TriCarb scintillation counter (PerkinElmer).
For each sample, an immunoprecipitation was performed in parallel. […] Equal volumes of the eluent were resolved by 10% SDS-PAGE and analyzed with Coomassie Blue stain. Kd values were calculated as previously described (Wolfson et al., 2015).

[4] = molecular target: T4, interaction of GATOR2 with CASTOR1 homodimer (Homo sapiens, UniProt Q8WTX7); test: In vitro CASTOR-GATOR2 dissociation assay; type: biochemical
T4 construct: made in house; host or cells: HEK-293T co-transfected with the CASTOR cDNAs; GATOR2 is the cells' endogenous complex, co-immunoprecipitated on anti-HA beads
T4 sequence (Q8WTX7 1-329) 1: T1 sequence (Q8WTX7 1-329) 1
T4 sequence (Q8WTX7 1-329) 2: T1 sequence (Q8WTX7 1-329) 1
Procedure: (§5) HEK-293T cells co-transfected with 40 ng CASTOR1-HA and either 80 ng CASTOR1-FLAG (CASTOR1 homodimer) or 80 ng CASTOR2-FLAG (CASTOR1-CASTOR2 heterodimer) were starved for all amino acids for 50 minutes, lysed and subjected to anti-HA immunoprecipitation as described previously. The CASTOR-GATOR2 complexes immobilized on agarose beads were washed once in Triton wash buffer, three times in Triton wash buffer supplemented with 500 mM NaCl, and then incubated for 20 minutes in 1 mL of ice-cold Triton wash buffer supplemented with 500 mM NaCl and the indicated concentrations of individual amino acids. The amount of GATOR2 that remained bound to CASTOR complexes was assayed by SDS-PAGE and immunoblotting as previously described.

[5] = molecular target: T5, interaction of GATOR2 with CASTOR1-CASTOR2 heterodimer (Homo sapiens, UniProt Q8WTX7); test: In vitro CASTOR-GATOR2 dissociation assay; type: biochemical
T5 construct: made in house; host or cells: HEK-293T co-transfected with the CASTOR cDNAs; GATOR2 is the cells' endogenous complex, co-immunoprecipitated on anti-HA beads
T5 sequence (Q8WTX7 1-329): T1 sequence (Q8WTX7 1-329) 1
T5 sequence (A6NHX0 1-329 partner): T2 sequence (A6NHX0 1-329 partner)
Procedure: as §5

[6] = competition binding with increasing cold arginine, FLAG immunoprecipitates from HEK-293T cells
[7] = 400 μM arginine added to purified complexes

## NCCCC[C@H](N)C(=O)O [lysine]
[1]
  binding of radiolabeled amino acid to CASTOR1 homodimer: neither radiolabeled leucine nor lysine bound

## CC(C)C[C@H](N)C(=O)O [leucine]
[1]
  binding of radiolabeled amino acid to CASTOR1 homodimer: neither radiolabeled leucine nor lysine bound

## N=C(N)NCCC[C@H](N)C(=O)O [arginine]
[1]; bacterially produced protein
  arginine binding to CASTOR1 homodimer purified from E. coli: bound arginine to a comparable degree as the complexes prepared from human cells
[1]; [6]
  Kd: ~30 µM and 34.8 µM
[1]
  binding of radiolabeled amino acid to CASTOR1 homodimer: bound
[2]; bacterially produced protein
  arginine binding to CASTOR1-CASTOR2 heterodimer purified from E. coli: bound arginine to a comparable degree as the complexes prepared from human cells
[2]; [6]
  Kd: ~30 µM and 24.2 µM
[2]; immunopurified from HEK-293T cells
  amount of arginine bound by CASTOR1-CASTOR2 heterodimer relative to CASTOR1 homodimer: roughly half as much arginine as the CASTOR1 homodimer
[3]
  binding of tritiated arginine to CASTOR2 homodimer: not
[4]; [7]
  dissociation of GATOR2 from CASTOR1 homodimer: sufficient to dissociate GATOR2
[4]; purified complexes from amino acid starved HEK-293T cells, CASTOR1 homodimer, read-out: arginine concentration for half-maximal disruption of GATOR2 interaction
  EC50: 20 to 40 µM
[5]; [7]
  dissociation of GATOR2 from CASTOR1-CASTOR2 heterodimer: sufficient to dissociate GATOR2
[5]; purified complexes from amino acid starved HEK-293T cells, CASTOR1-CASTOR2 heterodimer, read-out: arginine concentration for half-maximal disruption of GATOR2 interaction
  EC50: 20 to 40 µM
